Experimental data published in EP0126813A1, “Process for preparing imidazole compounds” (Newport Pharmaceuticals International, Inc., priority 1983, dated 1984).

Assays:
Lymphocyte [1] = assay: Con A induced lymphocyte proliferation (mitogen induced lymphocyte proliferation); type: cell-based; conditions: for X̄ cpm: control 35,059 cpm
Excerpt: In Table 1 the effect of NPT 15459 on con A Induced Proliferation is described. The procedure is described in Simon U.S. patent 4,221,909, column 24, line 12 to column 25, line 10.

Lymphocyte [2] = assay: LPS induced lymphocyte proliferation (mitogen induced lymphocyte proliferation); type: cell-based; conditions: for X̄ cpm: control 7044 cpm
Excerpt: In Table 1 the effect of NPT 15459 on LPS Induced Proliferation is described.

[3] = test system: SRBC Induced Antibody Formation; assay: SRBC induced antibody formation; type: in vivo; conditions: for X̄ PFC/10^6 Cells: saline control 53
Excerpt: In Table 2 the SRBC Induced Antibody Formation procedure employed was that shown in Simon EPO application 0036077 page 46.

[4] = Solubility (summary of chemical properties); type: physicochemical
[5] = Lymphocyte, 5.0 µg/ml, read-out: Percent Change from Control
[6] = Lymphocyte, 10.0 µg/ml, read-out: Percent Change from Control

CCCCCC[C@H]([C@H](C)O)n1cnc(C(N)=O)c1N (relative stereo) [NPT 15459, erythro-3-(2-hydroxy-3-nonyl)-4-amino-imidazole-5-carboxamide]
X̄ cpm (Lymphocyte [1]; 5.0 µg/ml): 20,095 cpm
X̄ cpm (Lymphocyte [1]; 10.0 µg/ml): 12,736 cpm
X̄ cpm (Lymphocyte [1]; .020 µg/ml): 35,747 cpm
X̄ cpm (Lymphocyte [1]; .500 µg/ml): 30,920 cpm
inhibition at 5 µg/mL (Lymphocyte [1]; [5]): 43%
inhibition at 10 µg/mL (Lymphocyte [1]; [6]): 65%
inhibition at 0.02 µg/mL (Lymphocyte [1]; Lymphocyte, .020 µg/ml, read-out: Percent Change from Control): -2%
inhibition at 0.5 µg/mL (Lymphocyte [1]; Lymphocyte, .500 µg/ml, read-out: Percent Change from Control): 12%
X̄ cpm (Lymphocyte [2]; 5.0 µg/ml): 4128 cpm
X̄ cpm (Lymphocyte [2]; 10.0 µg/ml): 2449 cpm
X̄ cpm (Lymphocyte [2]; .02 µg/ml): 6184 cpm
X̄ cpm (Lymphocyte [2]; .5 µg/ml): 6676 cpm
inhibition at 5 µg/mL (Lymphocyte [2]; [5]): 42%
inhibition at 10 µg/mL (Lymphocyte [2]; [6]): 66%
inhibition at 0.02 µg/mL (Lymphocyte [2]; Lymphocyte, .02 µg/ml, read-out: Percent Change from Control): 12%
inhibition at 0.5 µg/mL (Lymphocyte [2]; Lymphocyte, .5 µg/ml, read-out: Percent Change from Control): 6%
Percent Change from Control ([3]; 5.0 mg/kg): +24%
X̄ PFC/10^6 Cells ([3]; 5.0 mg/kg): 66 PFC/10^6 Cells
Percent Change from Control ([3]; .05 mg/kg): +196%
X̄ PFC/10^6 Cells ([3]; .05 mg/kg): 157 PFC/10^6 Cells
Percent Change from Control ([3]; .5 mg/kg): +126%
X̄ PFC/10^6 Cells ([3]; .5 mg/kg): 120 PFC/10^6 Cells
Solubility ([4]; HCl (Aq), acetic acid, methanol, ethanol): very soluble
Solubility ([4]; benzene, water): insoluble
Solubility ([4]; isopropanol): soluble
